Test results reported in patent US20200392158A1, “INHIBITORS OF LEUCINE RICH REPEAT KINASE 2” (GLAXOSMITHKLINE INTELLECTUAL PROPERTY DEVELOPMENT LIMITED, priority 2017, published 2020).

Target: T1, LRRK2 kinase in SH-SY5Y cells over-expressing recombinant full length LRRK2 (Homo sapiens, UniProt Q5S007)
T1 construct: A BacMam virus expressing full length recombinant LRRK2 was purchased from Invitrogen; host or cells: SH-SY5Y human neuroblastoma cells transduced with BacMam LRRK2 virus
Assay: Recombinant cellular LRRK2 AlphaScreen assay (LRRK2 Ser935 phosphorylation)
Assay type: cell-based
Details: 60 min
Source text: b. Recombinant Cellular LRRK2 AlphaScreen Assay
To determine the activity of compounds against LRRK2 kinase in cells, the observed LRRK2 kinase-dependent modulation of LRRK2 Ser 935 phosphorylation (Dzamko et al., 2010, Biochem. J. 430: 405-413) was utilized to develop a quantitative 384 well plate-based immunoassay of LRRK2 Ser935 phosphorylation in the human neuroblastoma cell line SH-SY5Y, engineered to over-express recombinant full length LRRK2 protein.
A BacMam virus expressing full length recombinant LRRK2 was purchased from Invitrogen and amplified by inoculation of SF-9 cells at MOI 0.3 for 4-5 days in Sf-900 III SFM medium supplemented with 3% fetal bovine serum. Infected cell cultures were then centrifuged at 2000 g for 20 minutes, viral supernatant titer determined by anti-gp64 plaque assay and stored at 4° C.
Affinity-purified anti-phospho LRRK2 Ser935 sheep polyclonal antibody (Dzamko et al., 2010, Biochem. J. 430: 405-413) was biotinylated by standard methods (PerkinElmer). Anti-LRRK2 rabbit polyclonal antibody was purchased from Novus Biologicals. AlphaScreen Protein A IgG Kit (including acceptor and donor beads) was purchased from Perkin Elmer.
SH-SY5Y cells were grown in DMEM/F12 medium with 10% dialysed fetal bovine serum and harvested by treatment with 0.5% trypsin-EDTA for 5 minutes at 37° C. followed by centrifugation at 1000 rpm for 4 minutes. The cell pellet was resuspended in Opti-MEM reduced serum media (Invitrogen) at 200,000 cells/ml and mixed with the BacMam LRRK2 virus at M01=50. 50 μl cell solutions were then dispensed to each well of a 384-well plate and incubated at 37° C., 5% CO2 for 24 hours.
Compounds were prepared at 10× final assay concentration as 11 point 1 in 4 serial I dilutions in Opti-MEM reduced serum medium (Invitrogen 31985070) containing 1% DMSO. On the day of assay, 5.5 μl of the compound solutions were transferred from the compound plate to the cell assay plate to achieve a top final assay concentration of 10 uM. DMSO (0.1% final assay concentration) was added to column 6 and 2-(benzyloxy)-5-methyl-4-(1-methyl-1H-pyrazol-4-yl)-N-(pyridin-3-yl)benzamide (2 μM final assay concentration) was added to column 18 to serve as 0% and 100% inhibition controls, respectively.
Cells were incubated at 37° C., 5% CO2 for 60 minutes. The medium was then removed and cells lysed by addition of 20 μl of cell lysis buffer (Cell Signaling Technology) and incubation at 4° C. for 20 minutes. 10 μl of antibody/acceptor bead mix [(1/1000 biotinylated-pS935 LRRK2 antibody, 1/1000 total-LRRK2 antibody, 1/100 Acceptor beads in AlphaScreen detection buffer (25 mM Hepes (pH 7.4), 0.5% Triton X-100, 1 mg/ml Dextran 500 and 0.1% BSA)] was then added to each well and plates incubated for 2 hours at ambient temperature in the dark. 10 μl of donor beads solution (1/33.3 donor beads in AlphaScreen detection buffer) was then added to each well. Following incubation for a further 2 hours at ambient temperature in the dark, plates were read on an EnVision™ plate reader at emission 520-620 nm with excitation 680 nm. Dose response curve data was based on a sigmoidal dose-response model.

T1 sequence (Q5S007 whole entry): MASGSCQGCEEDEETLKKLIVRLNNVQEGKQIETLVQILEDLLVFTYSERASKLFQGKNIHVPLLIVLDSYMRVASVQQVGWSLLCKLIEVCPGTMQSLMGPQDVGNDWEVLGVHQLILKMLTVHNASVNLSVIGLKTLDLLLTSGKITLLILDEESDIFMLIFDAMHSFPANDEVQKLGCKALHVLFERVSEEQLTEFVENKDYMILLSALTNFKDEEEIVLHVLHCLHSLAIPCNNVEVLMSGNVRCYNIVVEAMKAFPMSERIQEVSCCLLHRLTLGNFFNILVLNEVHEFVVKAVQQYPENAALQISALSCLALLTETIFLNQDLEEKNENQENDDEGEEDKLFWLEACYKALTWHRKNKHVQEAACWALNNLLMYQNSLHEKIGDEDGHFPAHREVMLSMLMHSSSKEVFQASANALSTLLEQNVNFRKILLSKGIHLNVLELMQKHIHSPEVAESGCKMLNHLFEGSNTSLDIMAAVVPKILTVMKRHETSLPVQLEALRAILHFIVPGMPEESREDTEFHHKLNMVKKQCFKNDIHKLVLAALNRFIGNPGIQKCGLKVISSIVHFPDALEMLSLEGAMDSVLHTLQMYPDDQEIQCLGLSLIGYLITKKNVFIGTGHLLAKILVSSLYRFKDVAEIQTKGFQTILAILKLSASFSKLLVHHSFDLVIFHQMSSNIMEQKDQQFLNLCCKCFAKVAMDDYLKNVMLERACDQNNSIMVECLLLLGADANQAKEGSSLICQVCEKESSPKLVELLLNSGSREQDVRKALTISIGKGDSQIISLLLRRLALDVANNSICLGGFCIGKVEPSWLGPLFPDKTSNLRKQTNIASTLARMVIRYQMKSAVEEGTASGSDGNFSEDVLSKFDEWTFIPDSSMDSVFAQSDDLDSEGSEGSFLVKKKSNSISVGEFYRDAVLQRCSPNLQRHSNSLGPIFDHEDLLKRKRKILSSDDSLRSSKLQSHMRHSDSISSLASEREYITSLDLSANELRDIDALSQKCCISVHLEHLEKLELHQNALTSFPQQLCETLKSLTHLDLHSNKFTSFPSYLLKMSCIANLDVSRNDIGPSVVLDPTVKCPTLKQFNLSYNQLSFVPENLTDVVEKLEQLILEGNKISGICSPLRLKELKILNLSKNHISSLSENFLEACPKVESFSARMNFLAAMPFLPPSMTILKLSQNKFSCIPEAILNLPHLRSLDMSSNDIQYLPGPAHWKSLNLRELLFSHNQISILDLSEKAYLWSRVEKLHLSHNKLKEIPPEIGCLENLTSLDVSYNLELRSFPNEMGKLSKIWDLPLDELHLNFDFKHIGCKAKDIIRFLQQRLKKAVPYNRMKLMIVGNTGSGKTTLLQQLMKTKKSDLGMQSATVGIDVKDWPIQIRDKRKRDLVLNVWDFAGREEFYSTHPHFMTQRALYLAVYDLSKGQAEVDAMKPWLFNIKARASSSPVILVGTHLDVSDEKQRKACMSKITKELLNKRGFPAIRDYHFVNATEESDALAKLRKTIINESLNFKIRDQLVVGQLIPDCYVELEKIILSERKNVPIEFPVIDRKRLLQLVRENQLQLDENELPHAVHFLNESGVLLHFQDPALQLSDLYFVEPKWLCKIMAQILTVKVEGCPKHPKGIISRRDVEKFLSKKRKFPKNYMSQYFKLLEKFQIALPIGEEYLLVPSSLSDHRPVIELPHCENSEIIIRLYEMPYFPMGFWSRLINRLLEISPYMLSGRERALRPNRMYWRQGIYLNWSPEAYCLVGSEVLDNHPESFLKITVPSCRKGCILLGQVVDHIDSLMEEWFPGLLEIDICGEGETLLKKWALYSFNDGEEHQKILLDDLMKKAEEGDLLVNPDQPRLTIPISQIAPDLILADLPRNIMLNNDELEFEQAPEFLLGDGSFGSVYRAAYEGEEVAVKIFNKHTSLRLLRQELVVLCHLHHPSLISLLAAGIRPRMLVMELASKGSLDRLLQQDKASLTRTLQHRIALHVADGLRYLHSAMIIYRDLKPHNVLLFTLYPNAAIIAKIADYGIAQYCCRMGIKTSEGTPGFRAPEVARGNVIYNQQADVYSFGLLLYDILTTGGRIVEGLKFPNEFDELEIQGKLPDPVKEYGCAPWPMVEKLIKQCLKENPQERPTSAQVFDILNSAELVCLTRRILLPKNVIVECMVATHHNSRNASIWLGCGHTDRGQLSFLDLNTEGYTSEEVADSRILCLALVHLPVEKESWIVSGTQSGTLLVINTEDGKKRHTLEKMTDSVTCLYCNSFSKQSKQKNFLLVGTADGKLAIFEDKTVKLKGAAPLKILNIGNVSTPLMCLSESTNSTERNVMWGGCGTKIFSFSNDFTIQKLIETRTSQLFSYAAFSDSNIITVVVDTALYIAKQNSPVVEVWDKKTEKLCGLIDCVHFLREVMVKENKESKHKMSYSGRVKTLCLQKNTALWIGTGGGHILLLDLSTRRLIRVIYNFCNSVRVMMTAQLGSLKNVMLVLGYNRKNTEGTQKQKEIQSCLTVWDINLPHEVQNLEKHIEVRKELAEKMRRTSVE

Row | SMILES | IC50
1 | Cc1c2c(nn1C1CCOCC1C)OCCCNc1nc(ncc1Cl)N2 (centres unmarked) [E139, 14-Chloro-4-methyl-5-(3-methyloxan-4-yl)-8-oxa-2,5,6,12,16,17-hexaazatricyclo[11.3.1.0^3,7]heptadeca-1(16),3,6,13(17),14-pentaene] | ≤ 100 nM
2 | COCCN1CCC(n2nc3c(c2C)Nc2ncc(Cl)c(n2)NCCCO3)C(F)C1 (single isomer, unassigned) [E59, trans-14-chloro-5-[3-fluoro-1-(2-methoxyethyl)piperidin-4-yl]-4-methyl-8-oxa-2,5,6,12,16,17-hexaazatricyclo[11.3.1.0^3,7]heptadeca 1(16),3,6,13(17),14-pentaene] | ≤ 100 nM
3 | Cc1c2c(nn1C(C)(C)C#N)OCC(C)C(C)Nc1nc(ncc1Cl)N2 (single isomer, unassigned) [E165, 2-{14-Chloro-4,10,11-trimethyl-8-oxa-2,5,6, 12,16,17-hexaazatricyclo[11.3.1.0^3,7]heptadeca-1(16),3,6, 13(17),14-pentaen-5-yl}-2-methylpropanenitrile] | ≤ 100 nM
4 | CCOC(=O)C(C)(C)n1nc2c(c1C)Nc1ncc(Cl)c(n1)NC(C)CCO2 (single isomer, unassigned) [E38, Ethyl 2-{14-chloro-4,11-dimethyl-8-oxa-2,5,6,12,16,17-hexaazatricyclo [11.3.1.0^3,7]heptadeca-1(16),3,6,13(17),14-pentaen-5-yl}-2-methylpropanoate] | ≤ 100 nM
5 | Cc1c2c(nn1C1CCC(F)(F)CC1)OCCCNc1nc(ncc1Cl)N2 [E142, 14-Chloro-5-(4,4-difluorocyclohexyl)-4-methyl-8-oxa-2,5,6,12, 16,17-hexaazatricyclo[11.3.1.0^3,7]heptadeca-1(16),3,6,13(17),14-pentaene] | ≤ 100 nM
6 | COC1CNc2nc(ncc2C(F)(F)F)Nc2c(nn(C3CCCOC3)c2C)OC1 (single isomer, unassigned) [E227, 10-Methoxy-4-methyl-5-(oxan-3-yl)-14-(trifluoromethyl)-8-oxa-2,5,6,12,16,17-hexaazatricyclo [11.3.1.0^3,7] heptadeca-1(17),3,6,13,15-pentaene] | ≤ 100 nM
7 | FC(F)c1c2c(nn1C1CCOCC1)OCCCNc1nc(ncc1C(F)(F)F)N2 [E118, 4-(Difluoromethyl)-5-(oxan-4-yl)-14-(trifluoromethyl)-8-oxa-2,5,6,12,16,17-hexaazatricyclo[11.3.1.0^3,7]heptadeca-1(16),3,6, 13(17),14-pentaene] | ≤ 100 nM

Continued, values first:

Row | IC50 | SMILES
8 | ≤ 100 nM | Cc1c2c(nn1C1CCC(C(F)(F)F)CC1)OCCCNc1nc(ncc1Cl)N2 (single isomer, unassigned) [E276, 14-Chloro-4-methyl-5-[4-(trifluoromethyl)cyclohexyl]-8-oxa-2,5,6,12,16,17-hexaazatricyclo[11.3.1.0^3,7] heptadeca-1(16),3,6,13(17),14-pentaene]
9 | ≤ 100 nM | Cc1c2c(nn1C1CC(N3CCC(F)(F)C3)C1)OCCC(C)Nc1nc(ncc1Cl)N2 (single isomer, unassigned) [E314, 14-Chloro-5-[3-(3,3-difluoropyrrolidin-1-yl)cyclobutyl]-4,11-dimethyl-8-oxa-2,5,6,12,16,17-hexaazatricyclo [11.3.1.0^3,7]-heptadeca-1(16),3,6,13(17),14-pentaene]
10 | ≤ 100 nM | COC1COc2nc(ncc2Cl)Nc2c(nn(C3CCOCC3)c2C)OC1 (single isomer, unassigned) [E328, 14-Chloro-10-methoxy-4-methyl-5-(oxan-4-yl)-8,12-dioxa-2,5,6,16,17-pentaazatricyclo[11.3.1.0^3,7]heptadeca-1(16),3,6,13(17),14-pentaene]
11 | ≤ 100 nM | COC1CNc2nc(ncc2Cl)Nc2c(nn(CC(F)(F)F)c2C)OC1 (single isomer, unassigned) [E269, 14-Chloro-10-methoxy-4-methyl-5-(2,2,2-trifluoroethyl)-8-oxa-2,5,6,12,16,17-hexaazatricyclo[11.3.1.0^3,7] heptadeca-1(16),3,6,13 (17),14-pentaene]
